Source: patent US7741352B2, “KCNQ channel modulating compounds and their pharmaceutical use” (Neurosearch A/S, priority 2003, dated 2010)

Test system: not given
Assay: not given
Conditions: not given

Row | melting point | Compound
1 | 279 to 284 °C (dec.) | O=C(O)c1ccc(-c2ccc(COc3ccc(C(=O)O)c(O)c3)cc2)cc1 [Compound 3-17, 4′-(4-Carboxy-3-hydroxy-phenoxymethyl)-biphenyl-4-carboxylic acid]
2 | 207 to 210 °C (dec.) | Nc1cccc(-c2ccc(COc3ccc(C(=O)O)c(O)c3)cc2)c1 [Compound 3-11, 4-(3′-Amino-biphenyl-4-ylmethoxy)-2-hydroxy-benzoic acid]
3 | 188 to 192 °C (dec.) | O=C(O)c1ccc(OCc2cccc(-c3ccc4c(c3)OCCCO4)c2)cc1O [Compound 3-35, 4-[3-(3,4-Dihydro-2H-benzo[b][1,4]dioxepin-7-yl)-benzyloxy]-2-hydroxy-benzoic acid]
4 | 176 to 178 °C (dec.) | COc1ccc(-c2cccc(COc3ccc(C(=O)O)c(O)c3)c2)c(OC)c1 [Compound 3-42, 4-(2′,4′-Dimethoxy-biphenyl-3-ylmethoxy)-2-hydroxy-benzoic acid]
5 | 181 to 183 °C (dec.) | Cn1ccc2cc(-c3cccc(COc4ccc(C(=O)O)c(O)c4)c3)ccc21 [Compound 3-33, 2-Hydroxy-4-[3-(1-methyl-1H-indol-5-yl)-benzyloxy]-benzoic acid]
6 | 190 to 194 °C (dec.) | O=C(O)c1ccc(OCc2cccc(-c3ccc4ccccc4c3)c2)cc1O [Compound 3-38, 2-Hydroxy-4-(3-naphthalen-2-yl-benzyloxy)-benzoic acid]
7 | > 275 °C | O=C(Oc1ccc(C(=O)O)c(O)c1)c1ccc(-c2ccccc2)cc1 [Compound 5-1, 4-(4-Phenyl-benzoyloxy)-2-hydroxy benzoic acid]
8 | 103 to 115 °C (dec.) | COc1cccc(-c2cccc(COc3ccc(C(=O)O)c(O)c3)c2)c1 [Compound 3-22, 2-Hydroxy-4-(3′-methoxy-biphenyl-3-ylmethoxy)-benzoic acid]
9 | 202 to 206 °C (dec.) | O=C(O)c1ccc(OCc2ccc(-c3ccoc3)cc2)cc1O [Compound 3-4, 4-(4-Furan-3-yl-benzyloxy)-2-hydroxy-benzoic acid]
10 | 194 to 197 °C (dec.) | O=C(O)c1ccc(OCc2cccc(-c3cc(Cl)cc(Cl)c3)c2)cc1O [Compound 3-31, 4-(3′,5′-Dichloro-biphenyl-3-ylmethoxy)-2-hydroxy-benzoic acid]
11 | 200 to 204 °C (dec.) | COc1ccc(-c2ccc(COc3ccc(C(=O)O)c(O)c3)cc2)cc1OC [Compound 3-15, 2-Hydroxy-4-(3′,4′-dimethoxy-biphenyl-4-ylmethoxy)-benzoic acid]
12 | 198 to 199 °C | O=C(c1ccccc1)c1ccc(COc2ccc(C(=O)O)c(O)c2)cc1 [Compound 1-20, 4-(4-Benzoyl-benzyloxy)-2-hydroxy benzoic acid]
13 | 210 to 215 °C (dec.) | CC(=O)c1ccc(-c2cccc(COc3ccc(C(=O)O)c(O)c3)c2)s1 [Compound 3-29, 4-[3-(5-Acetyl-thiophen-2-yl)-benzyloxy]-2-hydroxy-benzoic acid]
14 | 222 to 226 °C (dec.) | O=C(O)c1ccc(OCc2ccc(-c3ccc(CO)cc3)cc2)cc1O [Compound 3-16, 2-Hydroxy-4-(4′-hydroxymethyl-biphenyl-4-ylmethoxy)-benzoic acid]

More lines, now with the values behind:

Row | Compound | melting point
15 | O=C(O)c1ccc(Oc2ccc([N+](=O)[O-])cc2)cc1O [Compound 8-1, 2-Hydroxy-4-(4-nitro-phenoxy)-benzoic acid] | 195 to 197 °C
16 | COc1cc(NC(=O)c2ccc(-c3ccccc3)cc2)ccc1C(=O)O [Compound 7-1] | 179 to 181 °C
17 | C=CCCOc1ccc(C(=O)O)c(O)c1 [Compound 1-5, 4-But-3-enyloxy-2-hydroxy-benzoic acid] | 143 to 144 °C
18 | N#Cc1ccc(NCc2ccc(-c3ccccc3)cc2)cc1O [Compound 12-16, 4-[(Biphenyl-4-ylmethyl)-amino]-2-hydroxy-benzonitrile] | 196 to 197 °C
19 | O=C(O)c1ccc(OC2CCOCC2)cc1O [Compound 4-1, 2-hydroxy-4-(tetrahydro-pyran-4-yloxy)-benzoic acid] | 179 to 181 °C (dec.)
20 | Nc1ccc(Oc2ccc(C(=O)O)c(O)c2)cc1 [Compound 8-2, 4-(4-Amino-phenoxy)-2-hydroxy-benzoic acid] | 187 to 188 °C
21 | O=C(O)c1ccc(NCc2cccc([N+](=O)[O-])c2)cc1O [Compound 6-1, 2-Hydroxy-4-(3-nitro-benzylamino)-benzoic acid] | 189 °C (dec.)
22 | O=C(O)c1ccc(Oc2ccc(-c3ccccc3)cc2[N+](=O)[O-])cc1O [Compound 8-4, 2-Hydroxy-4-(3-nitro-biphenyl-4-yloxy)-benzoic acid] | > 200 °C (dec.)
23 | NNC(=O)c1ccc(OCc2cccc(Br)c2)cc1O [Compound 2-7, 4-(3-Bromo-benzyloxy)-2-hydroxy-benzoic acid hydrazide] | 201 to 203 °C
24 | CCCCCCCCOc1ccc(C(N)=O)c(O)c1 [Compound 12-4, 2-Hydroxy-4-octyloxy-benzamide] | 123 to 124 °C
25 | O=C(O)c1ccc(OCCCCCCO)cc1O [Compound 1-8, 2-Hydroxy-4-(6-hydroxyhexyloxy) benzoic acid] | 139 °C
26 | COCCOCCOc1ccc(C(=O)O)c(O)c1 [Compound 1-4, 2-Hydroxy-4-[2-(2-methoxy-ethoxy]-ethoxy]-benzoic acid] | 110 to 112 °C
27 | O=C(O)c1ccc(Nc2ccccc2[N+](=O)[O-])cc1O [Compound 8-12, 2-Hydroxy-4-(2-nitro-phenylamino)-benzoic acid] | 190 °C (dec.)
28 | C=CCCCCCCOc1ccc(C(=O)O)c(O)c1 [Compound 1-10, 2-Hydroxy-4-oct-7-enyloxy-benzoic acid] | 102 to 111 °C
29 | CCCCCCCCOc1ccc(-c2nnn[nH]2)c(O)c1 [Compound 12-6, 5-Octyloxy-2-(1H-tetrazol-5-yl)-phenol] | 142 to 146 °C
30 | CCCCCCCCOc1ccc(NC(=O)C(F)(F)F)c(O)c1 [Compound 9-1, 2,2,2-trifluoro-N-(2-hydroxy-4-octyloxy-phenyl)-acetamide] | 114 to 116 °C
31 | Cc1noc(C)c1COc1ccc(C(=O)O)c(O)c1 [Compound 1-1, 2-Hydroxy-4-(3,5-dimethyl-isoxazol-4-yl-methyloxy)-benzoic acid] | 201 to 203 °C

Biological target: T1, human KCNQ4 channel (Homo sapiens, UniProt P56696)
T1 construct: expressed in transfected cells
Assay: Electrophysiological determination: whole-cell patch-clamp of voltage-activated KCNQ current
Type: cell-based
Conditions: HEK293 cell line stably expressing human KCNQ4; current at end of step to −30 mV; baseline current defined as 100%; test concentration not given
Method: KCNQ channels constitute a subfamily of the voltage-dependent potassium (K) channels. Five members of this family have been cloned (1-5) and they have been heterologously expressed in various homo- and heteromeric combinations. The ionic current through the channels is recorded in the whole-cell mode of the patch-clamp technique. The KCNQ currents are activated by a depolarising voltage step and it is investigated whether the test compound change the amount of basal current. Compounds that induce an increase in the voltage-activated current are called activators and the effect obtained by these activators is described as a percentage increase in baseline current at a given concentration.
A HEK293 cell line stably expressing the human KCNQ4 channel was obtained as described by Søgaard et al. [Søgaard R, Ljungstrøm T. Pedersen K A, Olesen S-P, Jensen B S: KCNQ4 channels expressed in mammalian cells: Functional characteristics and pharmacology; Am. J. Phys. 2000 280 C859-C866].
Experiments are carried out on a patch-clamp set-up. Cells plated on cover slips (Ø3.5 mm) are placed in a 15 μl perfusion chamber (flow rate ˜1 ml/min) mounted on an IMT-2 or IX-70 microscope equipped with Nomarski or Hoffmann optics. The microscope is placed on a vibration-free table in a grounded Faraday cage. All experiments are performed at room temperature (20-22° C.). The EPC-9 patch-clamp amplifier (HEKA-electronics, Lambrecht, Germany) is connected to a Macintosh computer via an ITC16 interface. Data are stored directly on the hard disk and analysed using IGOR software (Wavemetrics, Lake Oswego, USA).
The whole-cell configuration of the patch clamp technique is applied. In short: The Up of a borosilicate pipette (resistance 24 MΩ) is gently (remote control system) placed on the cell membrane. Light suction results in a giga seal (pipette resistance increases to more than 1 GΩ) and the cell membrane is then ruptured by more powerful suction. Cell capacitance is electronically compensated and the resistance between the pipette and the cell interior (the series resistance, Rs) is measured and compensated for. Usually the cell capacitance ranges from 5 to 20 pF (depending on cell size) and the series resistance is in the range 3 to 6 MΩ. Rs- as well as capacitance compensation are updated during the experiments (before each stimulus). All experiments with drifting Rs-values are discharged. Leak-subtractions are not performed but the leak is estimated by a hyper-polarisation voltage step.
The extracellular (bath) solution contains 144 mM NaCl, 2 mM CaCl2, 1 mM MgCl2, 10 mM HEPES (pH=7.4). […] By use of the program EqCal the concentration of free Ca^2+ have been calculated to 100 nM, the free Mg^2+ is 1 mM, and MgATP is 1.45 mM. […]

Row | IK (%) | Compound
32 | 115 | O=C(O)c1ccc(-c2ccc(COc3ccc(C(=O)O)c(O)c3)cc2)cc1 [Compound 3-17, 4′-(4-Carboxy-3-hydroxy-phenoxymethyl)-biphenyl-4-carboxylic acid]
33 | 115 | Nc1cccc(-c2ccc(COc3ccc(C(=O)O)c(O)c3)cc2)c1 [Compound 3-11, 4-(3′-Amino-biphenyl-4-ylmethoxy)-2-hydroxy-benzoic acid]

Same assay, conditions: HEK293 cell line stably expressing human KCNQ4; whole-cell patch clamp

Row | activator or inhibitor of the KCNQ channel (increase or decrease in current) | Compound
34 | activators | O=C(O)c1ccc(-c2ccc(COc3ccc(C(=O)O)c(O)c3)cc2)cc1 [Compound 3-17, 4′-(4-Carboxy-3-hydroxy-phenoxymethyl)-biphenyl-4-carboxylic acid]
35 | activators | Nc1cccc(-c2ccc(COc3ccc(C(=O)O)c(O)c3)cc2)c1 [Compound 3-11, 4-(3′-Amino-biphenyl-4-ylmethoxy)-2-hydroxy-benzoic acid]
